Source: patent US5496826A, “Pharmaceutical methods of using heterocyclic derivatives of N-phenylamides” (Bristol-Myers Squibb Company, priority 1994, dated 1996)

Key:
[1] = tested on: tonic seizure produced by 50 milliamps current through corneal electrodes (hind limb tonic extension); experiment: Maximum Electroshock Test (MES); type: in vivo, female C57Bl/6 mice; details: Mus musculus, ip, 0.5 h; mice, i.p. 30 min before MES; abolition of hind limb tonic extension; read-out: MES Results: median effective dose (ED50)
Protocol: (§1) The anticonvulsive properties of the compounds of the invention were evaluated using two standard animal models of epilepsy: the maximal electroshock test (MES) and the pentylenetetrazol (PTZ)-induced seizure procedure. Melatonergic action is indicated by binding studies done in hamster hypothalamus tissue.
2. Maximum Electroshock Test
The MES procedure used is based upon the tests disclosed by Swinyard and et al in J. Pharmacol, Expt. Ther., (1952) 106, 319 and L. A. Woodbury et al in Arch. Int. Pharmocodyn, (1952), 92-97. These tests are also described in U.S. Pat. Nos. 5,242,942 and 5,240,937, respectively.
In the MES procedure, a tonic seizure was produced in female C57Bl/6 mice (17-26 g) by the delivery of a 50 milliamps current through corneal electrodes for 0.2 sec. Before testing, the animals were allowed food and water ad libitum. Compounds were injected i.p. 30 min before the MES. Reference compounds (phenytoin, carbamazepine, phenobarbital, and valproic acid) were tested at the peak of activity and at the dose range reported in the literature. Seven mice were used per group. In this test anticonvulsive activity was indicated by the abolition of the hind limb tonic extension. The median effective dose (ED50) was obtained for each compound and compared to ED50 's of reference compound(s).

[2] = tested on: pentylenetetrazol (PTZ)-induced seizures; experiment: Pentylenetetrazole (PTZ)-Induced Seizure Test; type: in vivo, female C57BI/6 mice; details: 50 mg/kg i.p., mice, 30 min before 75 mg/kg PTZ i.p.
Protocol: as §1
1. Pentylenetetrazole--Induced Seizure Test
The PTZ technique employed was similar to that disclosed in P.C.T. publication WO 93/0572 (PCT/US92/07675), published on Apr. 1, 1993.
In the PTZ procedure, female C57BI/6 mice (17-26 g) were injected j.p. (vol=0.1 ml/20 g) with test compound or vehicle 30 min before i.p. administration of 75 mg/kg pentylenetetrazol. Multiple doses of reference compounds (ethosuximide, trimethadione, and pentobarbital) were tested at the peak of activity and at the dose range reported in the literature. Ten mice were used per group. After injection, mice were placed in individual observation cages and monitored for one hour. During the first thirty minutes following PTZ injection, seizure activity was recorded by measure: the latency to the onset of pre-convulsive activity (Pre) the latency to the onset of the first clonic seizure longer than five seconds (First) the latency to the onset of the first intense-generalized clonic/tonic seizure (IGS) and the length of survival (Surv Time). During the second thirty-minute period, only time of death was recorded.
Those compounds that produced a significant delay in the onset of seizure activity or delayed (or abolished) mortality when compared to that produced by vehicle (reference) were classified as anticonvulsants. Significant differences between animals treated with reference or test compounds were determined using the Student's t-test.

CCC(=O)Nc1ccccc1-c1nc2ccccc2[nH]1 [Example 1, N-[2-(1H-benzimidazol-2-yl)phenyl] propanamide]
ED50 [1]: < 25 mg/kg

COc1ccc2[nH]c(-c3ccccc3NC(C)=O)nc2c1 [Example 15, N-[2-(5-methoxy-1H-benzimidazol-2-yl)phenyl] acetamide]
First: latency to first seizure [2]: + (>100% controls) | Pre: latency to first twitch [2]: + (>100% controls) | Surv Time: duration of survival [2]: ++ (>200% controls)

CNC(=O)Nc1ccccc1-c1nc2ccccc2[nH]1 [Example 10, N-[2-(benzimidazol-2-yl)phenyl]-N'-methyl urea]
ED50 [1]: < 75 mg/kg | First: latency to first seizure [2]: ++ (>200% controls) | Pre: latency to first twitch [2]: + (>100% controls) | Surv Time: duration of survival [2]: ++ (>200% controls) | Surv: survival at one hour postPTZ [2]: ++++ (>400% controls)

CC(=O)Nc1ccccc1-c1nc2ccccc2o1 [Example 11, N-[2-(benzoxazol-2-yl)phenyl] acetamide]
ED50 [1]: < 75 mg/kg

CC(=O)Nc1ccccc1-c1nc2ccccc2s1 [Example 13, N-[2-(benzthiazol-2-yl)phenyl] acetamide]
ED50 [1]: < 25 mg/kg

COCC(=O)Nc1ccccc1-c1nc2ccccc2[nH]1 [Example 2, N-[2-(benzimidazol-2-yl)phenyl] methoxyacetamide]
ED50 [1]: < 75 mg/kg

CNC(=O)Nc1ccccc1-c1nc2ccccc2o1 [Example 12, N-[2-(benzoxazol-2-yl)phenyl]-N'-methyl urea]
ED50 [1]: < 100 mg/kg | First: latency to first seizure [2]: +++ (>300% controls) | IGS: onset of intense, generalized seizures [2]: + (>100% controls) | Pre: latency to first twitch [2]: + (>100% controls) | Surv Time: duration of survival [2]: ++ (>200% controls) | Surv: survival at one hour postPTZ [2]: ++ (>200% controls)
